Converted amounts (≈) assume the structure as drawn. Starred links: 1 amine or outer side, 2 acyl side, 3 side chain; linkers in the order of their positions; H or OH if unused. Non-standard residues stand in square brackets, D forms with d. Residues, ends and D or L forms follow the SMILES beside them. Oic = O=C(O)[C@@H]1C[C@@H]2CCCC[C@@H]2N1; X1 = O=C([C@@H]1CN([*:1])C2CCCCC21)[*:2]; Tic = O=C(O)[C@@H]1Cc2ccccc2CN1; Dap = NC[C@H](N)C(=O)O; GABA = NCCCC(=O)O
Key:
Assay type in all cases: functional
[1] = tested on: Acinetobacter baumannii; test: Antimicrobial activity against Acinetobacter baumannii ATCC 19606 after 24 hrs; conditions: ATCC 19606 = CIP 70.34 = JCM 6841, 24 h
[2] = tested on: Acinetobacter baumannii; test: Antimicrobial activity against Acinetobacter baumannii WRAIR after 24 hrs
[3] = tested on: Staphylococcus aureus; test: Antimicrobial activity against methicillin-resistant Staphylococcus aureus ATCC 33591 after 24 hrs; conditions: ATCC 33591, 24 h
[4] = tested on: Yersinia pestis; test: Antimicrobial activity against Yersinia pestis CO92 after 24 hrs; conditions: CO92, 24 h
[5] = tested on: Brucella melitensis; test: Antimicrobial activity against Brucella melitensis 16 M after 24 hrs
[6] = tested on: Brucella abortus; test: Antimicrobial activity against Brucella abortus 2308 after 24 hrs; conditions: Brucella abortus, 2308, 24 h
[7] = tested on: Brucella suis; test: Antimicrobial activity against Brucella suis ATCC 23445 after 24 hrs; conditions: ATCC 23445, 24 h
[8] = tested on: Bacillus anthracis; test: Antimicrobial activity against Bacillus anthracis Ames after 24 hrs
[9] = tested on: Francisella tularensis; test: Antimicrobial activity against Francisella tularensis SCHU-S4 after 24 hrs; conditions: SCHU-S4, 24 h
[10] = tested on: Burkholderia mallei; test: Antimicrobial activity against Burkholderia mallei ATCC 23444 after 24 hrs; conditions: ATCC 23444, 24 h
[11] = tested on: Burkholderia pseudomallei; test: Antimicrobial activity against Burkholderia pseudomallei BURK003(1026b) after 24 hrs

| Structure (SMILES) | MIC [1] [µM] | MIC [2] [µM] | MIC [3] [µM] | MIC [4] [µM] | MIC [5] [µM] | MIC [6] [µM] | MIC [7] [µM] | MIC [8] [µM] | MIC [9] [µM] | MIC [10] [µM] | MIC [11] [µM] |
| --- | --- | --- | --- | --- | --- | --- | --- | --- | --- | --- | --- |
| CC(=O)NCC(=O)N[C@@H](Cc1ccccc1)C(=O)N1Cc2ccccc2C[C@H]1C(=O)N1[C@H](C(=O)NCC(=O)N[C@@H](CN)C(=O)N2Cc3ccccc3C[C@H]2C(=O)N2[C@H](C(=O)NCC(=O)N[C@@H](Cc3ccccc3)C(=O)N3Cc4ccccc4C[C@H]3C(=O)N3[C@H](C(=O)NCC(=O)N[C@@H](CN)C(=O)N4Cc5ccccc5C[C@H]4C(=O)N[C@@H](CN)C(=O)N[C@@H](CN)C(=O)N[C@@H](CN)C(=O)N[C@@H](CN)C(N)=O)C[C@@H]4CCCC[C@@H]43)C[C@@H]3CCCC[C@@H]32)C[C@@H]2CCCC[C@@H]21 (Ac-GF[Tic][Oic]G[Dap][Tic][Oic]GF[Tic][Oic]G[Dap][Tic][Dap][Dap][Dap][Dap]-NH2) | 3.6 (≈ 7.88 µg/mL) | 3.6 (≈ 7.88 µg/mL) | 114 (≈ 249 µg/mL) | 228 (≈ 499 µg/mL) | 228 (≈ 499 µg/mL) | 228 (≈ 499 µg/mL) | 228 (≈ 499 µg/mL) | 14.8 (≈ 32.4 µg/mL) | 228 (≈ 499 µg/mL) | 228 (≈ 499 µg/mL) | 228 (≈ 499 µg/mL) |
| CC(=O)NCC(=O)N[C@@H](Cc1ccccc1)C(=O)N1Cc2ccccc2C[C@H]1C(=O)N1C[C@@H](C(=O)NCC(=O)N[C@@H](CCCNC(=N)N)C(=O)N2Cc3ccccc3C[C@H]2C(=O)N2C[C@@H](C(=O)NCC(=O)N[C@@H](Cc3ccccc3)C(=O)N3Cc4ccccc4C[C@H]3C(=O)N3C[C@@H](C(=O)NCC(=O)N[C@@H](CCCNC(=N)N)C(=O)N4Cc5ccccc5C[C@H]4C(=O)N[C@@H](CCCNC(=N)N)C(=O)N[C@@H](CCCNC(=N)N)C(=O)N[C@@H](CCCNC(=N)N)C(=O)N[C@@H](CCCNC(=N)N)C(N)=O)C4CCCCC43)C3CCCCC32)C2CCCCC21 (stereo not given in full) (Ac-GF[Tic][X1]GR[Tic][X1]GF[Tic][X1]GR[Tic]RRRR-NH2) | 5.98 (≈ 15.6 µg/mL) | 24 (≈ 62.6 µg/mL) | 96 (≈ 250 µg/mL) | 192 (≈ 501 µg/mL) | 192 (≈ 501 µg/mL) | 192 (≈ 501 µg/mL) | 192 (≈ 501 µg/mL) | 5.98 (≈ 15.6 µg/mL) | 192 (≈ 501 µg/mL) | 192 (≈ 501 µg/mL) | 192 (≈ 501 µg/mL) |
| C[C@H]1c2cccc(O)c2C(=O)C2=C(O)[C@]3(O)C(=O)C(C(N)=O)=C(O)[C@@H](N(C)C)[C@@H]3[C@@H](O)[C@@H]21 [DOXYCYCLINE] | 0.56 (≈ 0.249 µg/mL) | 0.56 (≈ 0.249 µg/mL) | 17.6 (≈ 7.82 µg/mL) | 0.56 (≈ 0.249 µg/mL) | 0.56 (≈ 0.249 µg/mL) | 0.56 (≈ 0.249 µg/mL) | 0.56 (≈ 0.249 µg/mL) | 0.27 (≈ 0.12 µg/mL) | 0.09 (≈ 0.04 µg/mL) | 0.09 (≈ 0.04 µg/mL) | 0.09 (≈ 0.04 µg/mL) |
| CC(=O)NCCCC(=O)N[C@@H](Cc1ccccc1)C(=O)N1Cc2ccccc2C[C@H]1C(=O)N1C[C@@H](C(=O)NCCCC(=O)N[C@@H](CCCCN)C(=O)N2Cc3ccccc3C[C@H]2C(=O)N2C[C@@H](C(=O)NCCCC(=O)N[C@@H](Cc3ccccc3)C(=O)N3Cc4ccccc4C[C@H]3C(=O)N3C[C@@H](C(=O)NCCCC(=O)N[C@@H](CCCCN)C(=O)N4Cc5ccccc5C[C@H]4C(=O)N[C@@H](CCCCN)C(=O)N[C@@H](CCCCN)C(=O)N[C@@H](CCCCN)C(=O)N[C@@H](CCCCN)C(N)=O)C4CCCCC43)C3CCCCC32)C2CCCCC21 (stereo not given in full) (Ac-[GABA]F[Tic][X1][GABA]K[Tic][X1][GABA]F[Tic][X1][GABA]K[Tic]KKKK-NH2) | 3.1 (≈ 7.92 µg/mL) | 3.1 (≈ 7.92 µg/mL) | 196 (≈ 500 µg/mL) | 196 (≈ 500 µg/mL) | 196 (≈ 500 µg/mL) | 196 (≈ 500 µg/mL) | 196 (≈ 500 µg/mL) | 12.5 (≈ 31.9 µg/mL) | 196 (≈ 500 µg/mL) | 196 (≈ 500 µg/mL) | 196 (≈ 500 µg/mL) |
| CC(=O)N[C@@H](CCCCN)C(=O)N[C@@H](CCCCN)C(=O)N[C@@H](CCCCN)C(=O)N[C@@H](CCCCN)C(=O)NCC(=O)N[C@@H](Cc1ccccc1)C(=O)N1Cc2ccccc2C[C@H]1C(=O)N1C[C@@H](C(=O)NCC(=O)N[C@@H](CCCCN)C(=O)N2Cc3ccccc3C[C@H]2C(=O)N2C[C@@H](C(=O)NCC(=O)N[C@@H](Cc3ccccc3)C(=O)N3Cc4ccccc4C[C@H]3C(=O)N3C[C@@H](C(=O)NCC(=O)N[C@@H](CCCCN)C(=O)N4Cc5ccccc5C[C@H]4C(N)=O)C4CCCCC43)C3CCCCC32)C2CCCCC21 (stereo not given in full) (Ac-KKKKGF[Tic][X1]GK[Tic][X1]GF[Tic][X1]GK[Tic]-NH2) | 12.8 (≈ 31.2 µg/mL) | 12.8 (≈ 31.2 µg/mL) | 102 (≈ 249 µg/mL) | 13.1 (≈ 32 µg/mL) | 51 (≈ 124 µg/mL) | 51 (≈ 124 µg/mL) | 25.6 (≈ 62.5 µg/mL) | 0.4 (≈ 0.976 µg/mL) | 51 (≈ 124 µg/mL) | 204 (≈ 498 µg/mL) | 204 (≈ 498 µg/mL) |

From ChEMBL document CHEMBL1255229, “Novel antimicrobial peptides that exhibit activity against select agents and other drug resistant bacteria” (2010)
